Type in all cases: cell-based, human
One series deals with AURKB. Put plainly: AURKB knock-down by siRNA against AURKB, western blot. Conditions: LC319 cells. As for the experimental part: (§1) Cells were lysed in lysis buffer; 50 mM Tris-HCl (pH 8.0), 150 mM NaCl, 0.5% NP-40, 0.5% deoxycholate-Na, 0.1% SDS, plus protease inhibitor (Protease Inhibitor Cocktail Set III; Calbiochem Darmstadt, Germany). An ECL western-blot analysis system was used (GE Healthcare Bio-sciences, Piscataway, N.J.), as previously described (Kato T, et al., Cancer Res. 2005 Jul. 1; 65(13):5638-46; Furukawa C, et al., Cancer Res. 2005 Aug. 15; 65(16):7102-10).
(§2) A vector-based RNA interference (RNAi) system, psiH1BX3.0, which was designed to synthesize siRNAs in mammalian cells was previously established (Suzuki C, et al., Cancer Res. 2003 Nov. 1; 63(21):7038-41; Kato T, et al., Cancer Res. 2005 Jul. 1; 65(13):5638-46; Furukawa C, et al., Cancer Res. 2005 Aug. 15; 65(16):7102-10; Suzuki C, et al., Cancer Res. 2005 Dec. 15; 65(24):11314-25. Ishikawa N, et al., Cancer Sci. 2006 August; 97(8):737-45; Takahashi K, et al., Cancer Res. 2006 Oct. 1; 66(19):9408-19; Hayama S, et al., Cancer Res. 2006 Nov. 1; 66(21):10339-48). 10 micrograms of siRNA-expression vector was transfected using 30 microliters of Lipofectamine 2000 (Invitrogen) into lung-cancer cell lines, LC319 and SBC-5. The transfected cells were cultured for seven days in the presence of appropriate concentrations of geneticin (G418), and the number of colonies was counted by Giemsa staining, and viability of cells was evaluated by MTT assay (cell-counting kit-8 solution; DOJINDO, Kumamoto, Japan), at 7 days after the G418 treatment. To confirm suppression of CDCA8 protein expression, western blotting was carried out with affinity-purified polyclonal antibody to CDCA8 according to the standard protocol. The target sequences of the synthetic oligonucleotides for RNAi were as follows:
Furthermore, to inhibit the AURKB activity in mammalian cells, siRNA oligos were constructed against AURKB (si-AURKB-#1 and -#2), as well as control siRNA oligos for EGFP. […]
#2: 5′-ACGCGGCACUUCACAAUUG-3′ (SEQ ID NO: 63)) in a final concentration of 100 nM. […] The cells were collected and analyzed after additional 72-hour culture.

The test system of series [1] is CDCA8. Put plainly: Western blot of endogenous CDCA8 protein after AURKB knock-down. Conditions: LC319 cells. The method, then:
as §1, §2
Furthermore, to inhibit the AURKB activity in mammalian cells, siRNA oligos were constructed against AURKB (si-AURKB-#1 and -#2), as well as control siRNA oligos for EGFP. The target sequences of the synthetic oligonucleotides for RNAi were as follows:
(§3) Cells seeded onto 10 cm-dishes were incubated in mixtures of both Lipofectamine (Invitrogen) and control 3 (5′-GAAGCAGCACGACUUCUUC-3′ (SEQ ID NO: 61)) or si-AURKBs (#1: 5′-CCAAACUGCUCAGGCAUAA-3′ (SEQ ID NO: 62);
(§4) #2: 5′-ACGCGGCACUUCACAAUUG-3′ (SEQ ID NO: 63)) in a final concentration of 100 nM. At 4 hours after transfection, the siRNA-lipofectamine mixtures were replaced with fresh media. The cells were collected and analyzed after additional 72-hour culture.

Another series relates to CDCA8 transcripts. Briefly: Semi-quantitative RT-PCR of CDCA8 transcript after AURKB knock-down. Conditions: LC319 cells. As for the experimental part: Total RNA was extracted from cultured cells and clinical tissues using Trizol reagent (Life Technologies, Inc., Gaithersburg, Md.) according to the manufacturer's protocol. Extracted RNAs and normal human tissue poly(A) RNAs were treated with DNase I (Nippon Gene, Tokyo, Japan) and reversely-transcribed using oligo (dT) primer and SuperScript II reverse transcriptase (Invitrogen, Carlsbad, Calif.). Semi-quantitative RT-PCR experiments were carried out with the following synthesized CDCA8-specific primers, AURKB-specific primers, E2F-1-specific primers, or with beta-actin (ACTB)-specific primers as an internal control:
as §3, §4

The subject of series [2] is CDCA8. Put plainly: RNA interference with si-CDCA8 vectors, western blot of CDCA8 protein. The conditions noted are these: in comparison with two control siRNAs (EGFP, Luciferase). The method, then:
as §1
as §2, with “follows: […]” for “follows:”

Series [3] relates to LC319 cells. Briefly: MTT assay after siRNA-expression vector transfection. Conditions: 7 days after G418 treatment, vs control siRNAs.
Source text: as §2, with “follows: […]” for “follows:”

Series [4] has as its system SBC-5 cells. The description is as above. The conditions noted are these: 7 days after G418 treatment, vs control siRNAs.
Source text: as §2, with “follows: […]” for “follows:”

The test system of series [5] is LC319 cells. Put plainly: Colony formation assay after siRNA-expression vector transfection. The conditions noted are these: Giemsa staining, vs control siRNAs.
Source text: as §2, with “follows: […]” for “follows:”

Series [6] concerns SBC-5 cells. Described as above. The conditions noted are these: Giemsa staining, vs control siRNAs.
Source text: as §2, with “follows: […]” for “follows:”

This is an account of results in patent US20100184047A1, “SCREENING AND THERAPEUTIC METHOD FOR NSCLC TARGETING THE CDCA8-AURKB COMPLEX” (ONCOTHERAPY SCIENCE, INC., priority 2007, published 2010).

Entries after “also recorded” stand apart in the source; their conditions may differ.

“5′-GGTGATTCACAGAGACATA-3′ (GGTGATTCACAGAGACATATTCAAGAGATATGTCTCTGTGAATCACC; expressed or natural sequence) [si-AURKB]”: the “AURKB expression / AURKB protein” value in the series on AURKB is reported as “selectively knocked down; also recorded: Reduction”. In addition, in the series with CDCA8 [1], the “amount of CDCA8 protein” value was “decreased” and the “phosphorylation levels of CDCA8” value is listed as “decreased”. In the series on CDCA8 transcripts, the “level of CDCA8 transcripts” value is on record as “not influenced”.

As to “5′-CAGCAGAAGCTATTCAGAC-3′ (CAGCAGAAGCTATTCAGACTTCAAGAGAGTCTGAATAGCTTCTGCTG; expressed or natural sequence) [si-CDCA8-#1]”, the “expression of endogenous CDCA8 proteins” value with CDCA8 [2] (LC319 cells) and in the series with CDCA8 [2] (SBC-5 cells) was “significantly suppressed” throughout. For the same substance, the “cell viability (MTT assay)” value with LC319 cells [3] and in the series on SBC-5 cells [4] was “significant decreases” in each case. Further, the “colony numbers (colony-formation assay)” value in the series with LC319 cells [5] and with SBC-5 cells [6] was “significant decreases” throughout.

For the substance “5′-ACGCGGCACUUCACAAUUG-3′ (listed as RNA, chemistry not given here) [si-AURKB-#2]”, the “AURKB expression / AURKB protein” value in the series with AURKB is on record as “Reduction”. For the same substance, in the series with CDCA8 [1], the “amount of CDCA8 protein” value was “dramatically decreased”. The “level of CDCA8 transcripts” value with CDCA8 transcripts was “not influenced”.

Consider “5′-CCAAACUGCUCAGGCAUAA-3′ (listed as RNA, chemistry not given here) [si-AURKB-#1]”, for which the “AURKB expression / AURKB protein” value in the series on AURKB is “Reduction”. Besides, the “amount of CDCA8 protein” value with CDCA8 [1] is on record as “dramatically decreased”. Besides, the “level of CDCA8 transcripts” value with CDCA8 transcripts is “not influenced”.

Regarding “5′-GCCGTGCTAACACTGTTAC-3′ (GCCGTGCTAACACTGTTACTTCAAGAGAGTAACAGTGTTAGCACGGC; expressed or natural sequence) [si-CDCA8-#2]”, the “expression of endogenous CDCA8 proteins” value with CDCA8 [2] (LC319 cells) and with CDCA8 [2] (SBC-5 cells) was “significantly suppressed” in each case. In addition, the “cell viability (MTT assay)” value in the series on LC319 cells [3] and in the series with SBC-5 cells [4] was “significant decreases” in each case. Further, the “colony numbers (colony-formation assay)” value in the series on LC319 cells [5] and in the series with SBC-5 cells [6] was “significant decreases” throughout.
